According to patent publication US9113629B2, “4-amino-6-(4-substituted-phenyl)-picolinates and 6-amino-2-(4-substituted-phenyl)-pyrimidine-4-carboxylates and their use as herbicides” (DOW AGROSCIENCES LLC, priority 2013, dated 2015):
Where two headings read alike, the source gives them in different places.

Key:
[1] = test system: Key Grass and Sedge Weeds as well as Grass Crops; assay: Post-emergent Test II herbicidal activity (Table 6); type: in vivo; details: post-emergence, 336 h; for pest or weed control at 70 g/ha: application rate 70 g ai/ha; for pest or weed control at 140 g/ha: application rate 140 g ai/ha
Method in brief: (§1)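 Spray rates: a highest rate plus ½×, ¼×, ⅛×, 1/16×, all delivered at 187 L/ha to plants at the first–second true leaf stage. Readout is a visual percent injury score at 14 d, where 100 means complete kill.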

[2] = test system: Key Broadleaf Weed and Crop Species; assay: Post-emergent Test II herbicidal activity (Table 5); type: in vivo; details: post-emergence, 336 h, post-emergent, 14 days after application; for pest or weed control at 70 g/ha: 70 g ai/ha; for pest or weed control at 140 g/ha: 140 g ai/ha
Method in brief: as §1

[3] = Triticum aestivum, TRZSS (wheat), read-out: Visual Growth Reduction (%) 14 Days After Application, TRZSS
[4] = CYPES: yellow nutsedge (Cyperus esculentus), read-out: Visual Growth Reduction (%) 14 Days After Application, CYPES
[5] = DIGSA: crabgrass (Digitaria sanguinalis), read-out: Visual Growth Reduction (%) 14 Days After Application, DIGSA
[6] = ECHCG: barnyardgrass (Echinochloa crus-galli), read-out: Visual Growth Reduction (%) 14 Days After Application, ECHCG
[7] = ORYSA: rice (Oryza sativa), read-out: Visual Growth Reduction (%) 14 Days After Application, ORYSA
[8] = SETFA: giant foxtail (Setaria faberi), read-out: Visual Growth Reduction (%) 14 Days After Application, SETFA
[9] = SORVU: grain sorghum (Sorghum vulgare), read-out: Visual Growth Reduction (%) 14 Days After Application, SORVU
[10] = ZEAMX: maize, corn (Zea mays), read-out: Visual Growth Reduction (%) 14 Days After Application, ZEAMX
[11] = ABUTH: velvetleaf (Abutilon theophrasti), read-out: Visual Growth Reduction (%) 14 Days After Application ABUTH
[12] = AMARE: redroot pigweed (Amaranthus retroflexus), read-out: Visual Growth Reduction (%) 14 Days After Application AMARE
[13] = BRSNN: oilseed-rape, canola (Brassica napus), read-out: Visual Growth Reduction (%) 14 Days After Application BRSNN
[14] = CHEAL: lambsquarters (Chenopodium album), read-out: Visual Growth Reduction (%) 14 Days After Application CHEAL
[15] = EPHHL: wild poinsettia (Euphorbia heterophylla), read-out: Visual Growth Reduction (%) 14 Days After Application EPHHL
[16] = HELAN: sunflower (Helianthus annuus), read-out: Visual Growth Reduction (%) 14 Days After Application HELAN
[17] = VIOTR: wild pansy (Viola tricolor), read-out: Visual Growth Reduction (%) 14 Days After Application VIOTR

With `Nc1cc(-c2ccc(Br)c(F)c2)nc(C(=O)O)c1Cl` [Compound 110, 4-Amino-6-(4-bromo-3-fluorophenyl)-3-chloropicolinic acid] the pest or weed control at 70 g/ha [1, 3] was 45 to 59%, the pest or weed control at 140 g/ha [1, 3] was 45 to 59% and the pest or weed control at 70 g/ha [1, 4] was 45 to 59%. It also gave a pest or weed control at 140 g/ha [1, 4] of 45 to 59%, a pest or weed control at 70 g/ha [1, 5] of 75 to 84% and a pest or weed control at 140 g/ha [1, 5] of 75 to 84%. For the same compound, the pest or weed control at 70 g/ha [1, 6] was 60 to 74%, the pest or weed control at 140 g/ha [1, 6] was 75 to 84% and the pest or weed control at 70 g/ha [1, 7] was 0 to 29%. The pest or weed control at 140 g/ha [1, 7] was 0 to 29%, the pest or weed control at 70 g/ha [1, 8] was 60 to 74% and the pest or weed control at 140 g/ha [1, 8] was 60 to 74%. The pest or weed control at 70 g/ha [1, 9] was 85 to 94%, the pest or weed control at 140 g/ha [1, 9] was 85 to 94% and the pest or weed control at 70 g/ha [1, 10] was 45 to 59%. It also gave a pest or weed control at 140 g/ha [1, 10] of 60 to 74%, a pest or weed control at 70 g/ha [2, 11] of 95 to 100% and a pest or weed control at 140 g/ha [2, 11] of 95 to 100%. The pest or weed control at 70 g/ha [2, 12] was 95 to 100%, the pest or weed control at 140 g/ha [2, 12] was 95 to 100% and the pest or weed control at 70 g/ha [2, 13] was 95 to 100%. For the same compound, the pest or weed control at 140 g/ha [2, 13] was 95 to 100%, the pest or weed control at 70 g/ha [2, 14] was 95 to 100% and the pest or weed control at 140 g/ha [2, 14] was 95 to 100%. It also gave a pest or weed control at 70 g/ha [2, 15] of 95 to 100%, a pest or weed control at 140 g/ha [2, 15] of 95 to 100% and a pest or weed control at 70 g/ha [2, 16] of 95 to 100%. The pest or weed control at 140 g/ha [2, 16] was 95 to 100%, the pest or weed control at 70 g/ha [2, 17] was 45 to 59% and the pest or weed control at 140 g/ha [2, 17] was 45 to 59%.
`COc1c(N)nc(-c2ccc(Br)c(F)c2)nc1C(=O)O` [Compound 113, 6-Amino-2-(4-bromo-3-fluorophenyl)-5-methoxypyrimidine-4-carboxylic acid] gave a pest or weed control at 70 g/ha [1, 3] of 60 to 74%, a pest or weed control at 140 g/ha [1, 3] of 75 to 84% and a pest or weed control at 70 g/ha [1, 4] of 95 to 100%. For the same compound, the pest or weed control at 140 g/ha [1, 4] was 95 to 100%, the pest or weed control at 70 g/ha [1, 5] was 75 to 84% and the pest or weed control at 140 g/ha [1, 5] was 75 to 84%. The pest or weed control at 70 g/ha [1, 6] was 85 to 94%, the pest or weed control at 140 g/ha [1, 6] was 85 to 94% and the pest or weed control at 70 g/ha [1, 7] was 30 to 44%. The pest or weed control at 140 g/ha [1, 7] was 60 to 74%, the pest or weed control at 70 g/ha [1, 8] was 75 to 84% and the pest or weed control at 140 g/ha [1, 8] was 75 to 84%. The pest or weed control at 70 g/ha [1, 9] was 85 to 94%, the pest or weed control at 140 g/ha [1, 9] was 85 to 94% and the pest or weed control at 70 g/ha [1, 10] was 85 to 94%. For the same compound, the pest or weed control at 140 g/ha [1, 10] was 85 to 94%, the pest or weed control at 70 g/ha [2, 11] was 85 to 94% and the pest or weed control at 140 g/ha [2, 11] was 85 to 94%. The pest or weed control at 70 g/ha [2, 12] was 95 to 100%, the pest or weed control at 140 g/ha [2, 12] was 95 to 100% and the pest or weed control at 70 g/ha [2, 13] was 95 to 100%. It also gave a pest or weed control at 140 g/ha [2, 13] of 95 to 100%, a pest or weed control at 70 g/ha [2, 14] of 95 to 100% and a pest or weed control at 140 g/ha [2, 14] of 95 to 100%. For the same compound, the pest or weed control at 70 g/ha [2, 15] was 95 to 100%, the pest or weed control at 140 g/ha [2, 15] was 95 to 100% and the pest or weed control at 70 g/ha [2, 16] was 95 to 100%. For the same compound, the pest or weed control at 140 g/ha [2, 16] was 95 to 100%, the pest or weed control at 70 g/ha [2, 17] was 95 to 100% and the pest or weed control at 140 g/ha [2, 17] was 95 to 100%.
`COC(=O)c1nc(-c2ccc(Br)c(F)c2)cc(N)c1Cl` [Compound 115, methyl 4-amino-6-(4-bromo-3-fluorophenyl)-3-chloropicolinate] showed a pest or weed control at 70 g/ha [1, 3] of 0 to 29%, a pest or weed control at 140 g/ha [1, 3] of 0 to 29% and a pest or weed control at 70 g/ha [1, 4] of 95 to 100%. It also gave a pest or weed control at 140 g/ha [1, 4] of 95 to 100%, a pest or weed control at 70 g/ha [1, 5] of 85 to 94% and a pest or weed control at 140 g/ha [1, 5] of 85 to 94%. It also gave a pest or weed control at 70 g/ha [1, 6] of 85 to 94%, a pest or weed control at 140 g/ha [1, 6] of 85 to 94% and a pest or weed control at 70 g/ha [1, 7] of 0 to 29%. For the same compound, the pest or weed control at 140 g/ha [1, 7] was 0 to 29%, the pest or weed control at 70 g/ha [1, 8] was 0 to 29% and the pest or weed control at 140 g/ha [1, 8] was 0 to 29%. It also gave a pest or weed control at 70 g/ha [1, 9] of 85 to 94%, a pest or weed control at 140 g/ha [1, 9] of 95 to 100% and a pest or weed control at 70 g/ha [1, 10] of 0 to 29%. It also gave a pest or weed control at 140 g/ha [1, 10] of 0 to 29%, a pest or weed control at 70 g/ha [2, 11] of 85 to 94% and a pest or weed control at 140 g/ha [2, 11] of 85 to 94%. It also gave a pest or weed control at 70 g/ha [2, 12] of 95 to 100%, a pest or weed control at 140 g/ha [2, 12] of 95 to 100% and a pest or weed control at 70 g/ha [2, 13] of 60 to 74%. It also gave a pest or weed control at 140 g/ha [2, 13] of 75 to 84%, a pest or weed control at 70 g/ha [2, 14] of 95 to 100% and a pest or weed control at 140 g/ha [2, 14] of 95 to 100%. For the same compound, the pest or weed control at 70 g/ha [2, 15] was 95 to 100%, the pest or weed control at 140 g/ha [2, 15] was 95 to 100% and the pest or weed control at 70 g/ha [2, 16] was 85 to 94%. For the same compound, the pest or weed control at 140 g/ha [2, 16] was 95 to 100%, the pest or weed control at 70 g/ha [2, 17] was 95 to 100% and the pest or weed control at 140 g/ha [2, 17] was 95 to 100%.
Work on `C=Cc1c(N)nc(-c2ccc(C(F)(F)F)c(F)c2)nc1C(=O)OC` [Compound 137, Methyl 6-amino-2-(3-fluoro-4-(trifluoromethyl)phenyl)-5-vinylpyrimidine-4-carboxylate] yielded a pest or weed control at 70 g/ha [1, 3] of 0 to 29%, a pest or weed control at 140 g/ha [1, 3] of 0 to 29% and a pest or weed control at 70 g/ha [1, 4] of 45 to 59%. The pest or weed control at 140 g/ha [1, 4] was 45 to 59%, the pest or weed control at 70 g/ha [1, 5] was 0 to 29% and the pest or weed control at 140 g/ha [1, 5] was 0 to 29%. For the same compound, the pest or weed control at 70 g/ha [1, 6] was 0 to 29%, the pest or weed control at 140 g/ha [1, 6] was 0 to 29% and the pest or weed control at 70 g/ha [1, 7] was 0 to 29%. For the same compound, the pest or weed control at 140 g/ha [1, 7] was 0 to 29%, the pest or weed control at 70 g/ha [1, 8] was 0 to 29% and the pest or weed control at 140 g/ha [1, 8] was 0 to 29%. The pest or weed control at 70 g/ha [1, 9] was 0 to 29%, the pest or weed control at 140 g/ha [1, 9] was 0 to 29% and the pest or weed control at 70 g/ha [1, 10] was 0 to 29%. The pest or weed control at 140 g/ha [1, 10] was 0 to 29%, the pest or weed control at 70 g/ha [2, 11] was 75 to 84% and the pest or weed control at 140 g/ha [2, 11] was 85 to 94%. The pest or weed control at 70 g/ha [2, 12] was 0 to 29%, the pest or weed control at 140 g/ha [2, 12] was 0 to 29% and the pest or weed control at 70 g/ha [2, 13] was 0 to 29%. The pest or weed control at 140 g/ha [2, 13] was 0 to 29%, the pest or weed control at 70 g/ha [2, 14] was 0 to 29% and the pest or weed control at 140 g/ha [2, 14] was 45 to 59%. For the same compound, the pest or weed control at 70 g/ha [2, 15] was 0 to 29%, the pest or weed control at 140 g/ha [2, 15] was 60 to 74% and the pest or weed control at 70 g/ha [2, 16] was 45 to 59%. For the same compound, the pest or weed control at 140 g/ha [2, 16] was 60 to 74%, the pest or weed control at 70 g/ha [2, 17] was 0 to 29% and the pest or weed control at 140 g/ha [2, 17] was 0 to 29%.
